35 molecules from US9518015B2, “EP1 receptor ligands” (LABORATORIOS DEL DR. ESTEVE, S.A., priority 2011, dated 2016) can be followed below.

A value given as a limit tells only on which side of the number the result lay.

The target of one assay is T1, human EP1 receptor (Homo sapiens, UniProt P34995).
T1 sequence (P34995 1-402): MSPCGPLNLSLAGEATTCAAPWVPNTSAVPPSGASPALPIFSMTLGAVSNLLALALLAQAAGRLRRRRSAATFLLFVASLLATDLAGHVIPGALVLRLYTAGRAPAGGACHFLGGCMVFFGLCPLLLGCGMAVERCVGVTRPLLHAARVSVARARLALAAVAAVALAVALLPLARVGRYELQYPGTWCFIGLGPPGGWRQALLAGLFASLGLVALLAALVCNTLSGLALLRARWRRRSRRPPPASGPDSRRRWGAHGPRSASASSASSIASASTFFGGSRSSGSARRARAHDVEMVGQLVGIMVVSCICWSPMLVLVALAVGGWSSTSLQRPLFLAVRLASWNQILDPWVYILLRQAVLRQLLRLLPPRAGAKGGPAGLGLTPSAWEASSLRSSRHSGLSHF
Briefly: Test 2: Measurement of IP1 responses by HTRF, suspended HEK-293 cells stably expressing human EP1 receptors, PGE2 30 nM. The class given is cell-based. The arrangement: expressed in transfected cells. The settings on record: HEK293, at 10 μM, read-out: Results of Test 2 (Functional assay), % inh. How it is done: Test 2: Measurement of IP1 responses by Homogeneous Time Resolved Fluorescence
IP1 measurements on HEK-293 cells that stably expressed human EP1 receptors were performed by using a system based on Homogeneous Time Resolved Fluorescense (HTRF) (Gabriel et al., 2003). This technology allows the direct measurement of IP1 in living cells. The principle of this assay is based on competition between IP1 produced by cells and IP1-d2 conjugate for the binding with monoclonal anti-IP1-cryptate conjugate. The HTRF IP1 kit from CisBio was used according to the manufacturer's directions. The experimental procedure was performed as stated below.
Suspended cells (30,000 cells per well) were added to 96-well culture plates in 40 μl of stimulation buffer (supplied by the kit). Compounds were then added in 20 μl of stimulation buffer and incubated at 37° C. for 15 minutes followed by 10 μl of PGE2 to a final concentration of […]. After 90 minutes at 37° C., the reaction was stopped lysing the cells with a mixture of 15 μl of cryptate and 15 μl of IP1-d2 prepared in the lysis buffer supplied by the manufacturer. Plates were incubated for an additional hour at room temperature and read at 665 nm/620 nm using an UltraEvolution Plate reader (Tecan).
Antagonist percentage inhibition was calculated relating compounds activity to the 0% inhibition of the wells incubated with 10 nM PGE2 alone and 100% inhibition of the wells incubated with 10 nM PGE2 plus 1 μM of the reference antagonist.
Background: TR-FRET usually uses a lanthanide donor and a delayed reading to cut background.
As to `O=C(O)c1cccc2c1ccn2Cc1cc(Br)ccc1OCc1ccc(Cl)cc1F` [Example 9, 1-(5-bromo-2-((4-chloro-2-fluorobenzyl)oxy)benzyl)-1H-indole-4-carboxylic acid], the inhibition at 10 µM is above 75%.

As to `CC(C)COc1cc(Cl)ccc1Cn1ccc2c(C(=O)O)cccc21` [Example 10, 1-(4-chloro-2-isobutoxybenzyl)-1H-indole-4-carboxylic acid], the inhibition at 10 µM fell in the range of 45 to 75%. Same read-out and setting: next, `O=C(O)c1cccc2c1ccn2Cc1cc(F)ccc1OCc1ccc(F)cc1C(F)(F)F` [Example 18, 1-(5-fluoro-2-((4-fluoro-2-(trifluoromethyl)benzyl)oxy)benzyl)-1H-indole-4-carboxylic acid]: above 75%. The same measure, in the same setting: the same measure for `CC(Oc1ccc(Cl)cc1Cn1ccc2c(C(=O)O)cccc21)c1ccc(F)cc1F` (centres unmarked) [Example 23]: above 75%; for `O=C(O)c1cccc2c1ccn2Cc1cc(Cl)cc(Br)c1OCc1ccc(Br)cc1F` [Example 28, 1-(3-bromo-2-((4-bromo-2-fluorobenzyl)oxy)-5-chlorobenzyl)-1H-indole-4-carboxylic acid]: 45 to 75%; for `O=C(O)c1cccc2c1ccn2Cc1cc(F)ccc1OCc1ccc(F)cc1` [Example 35, 1-(5-fluoro-2-((4-fluorobenzyl)oxy)benzyl)-1H-indole-4-carboxylic acid]: above 75%. For the molecule `O=C(O)c1cccc2c1ccn2Cc1cc(F)ccc1OCc1cc(F)c(F)cc1Cl` [Example 36, 1-(2-((2-chloro-4,5-difluorobenzyl)oxy)-5-fluorobenzyl)-1H-indole-4-carboxylic acid], the inhibition at 10 µM was in the range of 45 to 75%. Regarding `O=C(O)c1cccc2c1ccn2Cc1cc(C(F)(F)F)ccc1OCc1c(F)cccc1F` [Example 37, 1-(2-((2,6-difluorobenzyl)oxy)-5-(trifluoromethyl)benzyl)-1H-indole-4-carboxylic acid], the inhibition at 10 µM is above 75%. As to `O=C(O)c1cccc2c1ccn2Cc1cc(F)ccc1OCc1cc(F)ccc1Cl` [Example 38, 1-(2-((2-chloro-5-fluorobenzyl)oxy)-5-fluorobenzyl)-1H-indole-4-carboxylic acid], the inhibition at 10 µM is above 75%.

With `O=C(O)c1cccc2c1ccn2Cc1cc(C(F)(F)F)ccc1OCc1cc(F)ccc1F` [Example 39, 1-(2-((2,5-difluorobenzyl)oxy)-5-(trifluoromethyl)benzyl)-1H-indole-4-carboxylic acid], the inhibition at 10 µM is above 75%. In the case of `O=C(O)c1cccc2c1ccn2Cc1cc(Cl)cc(Br)c1OCc1c(F)cccc1F` [Example 40, 1-(3-bromo-5-chloro-2-((2,6-difluorobenzyl)oxy)benzyl)-1H-indole-4-carboxylic acid], the inhibition at 10 µM lay within 45 to 75%. Still for that read-out and setting: next, `O=C(O)c1cccc2c1ccn2Cc1cc(Cl)ccc1OCc1cc(F)cc(F)c1` [Example 41, 1-(5-chloro-2-((3,5-difluorobenzyl)oxy)benzyl)-1H-indole-4-carboxylic acid]: above 75%; `CC(c1cc(Cl)ccc1OCc1ccc(Cl)cc1F)n1ccc2c(C(=O)O)cccc21` (centres unmarked) [Example 42, 1-(1-(5-chloro-2-((4-chloro-2-fluorobenzyl)oxy)phenyl)ethyl)-1H-indole-4-carboxylic acid]: above 75%; `O=C(O)c1cccc2c1ccn2Cc1cc(Cl)ccc1OCc1ccc(F)cc1F` [Example 43, 1-(5-chloro-2-((2,4-difluorobenzyl)oxy)benzyl)-1H-indole-4-carboxylic acid]: above 75%. On the same count and under the same terms, next, `O=C(O)c1cccc2c1ccn2Cc1cc(Cl)ccc1OCc1ccc(Br)cc1F` [Example 46, 1-(2-((4-bromo-2-fluorobenzyl)oxy)-5-chlorobenzyl)-1H-indole-4-carboxylic acid]: above 75%; `O=C(O)c1cccc2c1ccn2Cc1cc(C(F)(F)F)ccc1OCc1ccccc1F` [Example 52, 1-(2-((2-fluorobenzyl)oxy)-5-(trifluoromethyl)benzyl)-1H-indole-4-carboxylic acid]: above 75%; `O=C(O)c1cccc2c1ccn2Cc1cc(F)ccc1OCc1ccc(F)cc1F` [Example 53, 1-(2-((2,4-difluorobenzyl)oxy)-5-fluorobenzyl)-1H-indole-4-carboxylic acid]: above 75%.

Regarding `O=C(O)c1cccc2c1ccn2Cc1cc(Cl)ccc1OCc1c(F)cc(Br)cc1F` [Example 58, 1-(2-((4-bromo-2,6-difluorobenzyl)oxy)-5-chlorobenzyl)-1H-indole-4-carboxylic acid], the inhibition at 10 µM was above 75%. For `O=C(O)c1cccc2c1ccn2Cc1cc(Cl)cc(Cl)c1OCc1ccc(Cl)cc1F` [Example 59, 1-(3,5-dichloro-2-((4-chloro-2-fluorobenzyl)oxy)benzyl)-1H-indole-4-carboxylic acid], the inhibition at 10 µM lay within 45 to 75%.

With `O=C(O)c1cccc2c1ccn2Cc1cc(Br)ccc1OCc1c(F)cc(Cl)cc1F` [Example 60, 1-(5-bromo-2-((4-chloro-2,6-difluorobenzyl)oxy)benzyl)-1H-indole-4-carboxylic acid], the inhibition at 10 µM was above 75%. As for `O=C(O)c1cccc2c1ccn2Cc1ncccc1OCc1ccc(Cl)cc1F` [Example 61, 1-((3-((4-chloro-2-fluorobenzyl)oxy)pyridin-2-yl)methyl)-1H-indole-4-carboxylic acid], the inhibition at 10 µM was in the range of 45 to 75%. On to `O=C(O)c1cccc2c1ccn2Cc1cc(Cl)ccc1CCc1ccc(Cl)cc1F` [Example 63, 1-(5-chloro-2-(4-chloro-2-fluorophenethyl)benzyl)-1H-indole-4-carboxylic acid], for which the inhibition at 10 µM is above 75%. As to `O=C(O)c1ccc2c(ccn2Cc2cc(Cl)ccc2OCC2CC2)c1` [Example 64, 1-(5-chloro-2-(cyclopropylmethoxy)benzyl)-1H-indole-5-carboxylic acid], the inhibition at 10 µM was above 75%.

Regarding `O=C(O)c1ccc2c(ccn2Cc2cc(F)ccc2OCc2cc(F)c(F)cc2F)c1` [Example 65], the inhibition at 10 µM was above 75%. As to `O=C(O)c1ccc2c(ccn2Cc2cc(F)ccc2OCc2ccc(F)cc2Cl)c1` [Example 66, 1-(2-((2-chloro-4-fluorobenzyl)oxy)-5-fluorobenzyl)-1H-indole-5-carboxylic acid], the inhibition at 10 µM is above 75%. `O=C(O)c1ccc2c(ccn2Cc2cc(Cl)ccc2OCc2ccc(F)cc2C(F)(F)F)c1` [Example 67]: the inhibition at 10 µM was 45 to 75%.

On to `O=C(O)c1ccc2c(ccn2Cc2cc(Br)ccc2OCc2ccc(F)cc2Cl)c1` [Example 70, 1-(5-bromo-2-((2-chloro-4-fluorobenzyl)oxy)benzyl)-1H-indole-5-carboxylic acid], for which the inhibition at 10 µM was above 75%. Turning to `O=C(O)c1ccc2c(ccn2Cc2cc(F)ccc2OCc2cc(F)c(F)c(F)c2)c1` [Example 71, 1-(5-fluoro-2-((3,4,5-trifluorobenzyl)oxy)benzyl)-1H-indole-5-carboxylic acid], the inhibition at 10 µM was 45 to 75%. As for `O=C(O)c1ccc2c(ccn2Cc2cc(F)ccc2OCc2cc(F)c(F)cc2Cl)c1` [Example 72, 1-(2-((2-chloro-4,5-difluorobenzyl)oxy)-5-fluorobenzyl)-1H-indole-5-carboxylic acid], the inhibition at 10 µM was above 75%. Consider `O=C(O)c1ccc2c(ccn2Cc2cc(F)ccc2OCc2cc(F)ccc2Cl)c1` [Example 73, 1-(2-((2-chloro-5-fluorobenzyl)oxy)-5-fluorobenzyl)-1H-indole-5-carboxylic acid], for which the inhibition at 10 µM was 45 to 75%.

With `O=C(O)c1ccc2c(ccn2Cc2cc(Br)ccc2OCc2ccc(F)cc2F)c1` [Example 74, 1-(5-bromo-2-((2,4-difluorobenzyl)oxy)benzyl)-1H-indole-5-carboxylic acid], the inhibition at 10 µM is 45 to 75%. The same measure, in the same setting: next, `O=C(O)c1ccc2c(ccn2Cc2cc(Cl)ccc2OCc2ccc(Cl)cc2F)c1` [Example 76, 1-(5-chloro-2-((4-chloro-2-fluorobenzyl)oxy)benzyl)-1H-indole-5-carboxylic acid]: 45 to 75%; `O=C(O)c1ccc2c(ccn2Cc2cc(Cl)ccc2OCc2ccc(F)cc2F)c1` [Example 78]: above 75%; `O=C(O)/C=C/c1cccc2c1ccn2Cc1cc(C(F)(F)F)ccc1OCc1ccccc1` [Example 79, (E)-3-(1-(2-(benzyloxy)-5-(trifluoromethyl)benzyl)-1H-indol-4-yl)acrylic acid]: above 75%.

Still in this assay, the particulars now being: at 10 μM.
As to `O=C(O)CCc1cccc2c1ccn2Cc1cc(Cl)ccc1OCc1ccc(Cl)cc1F` [Example 62, 3-(1-(5-chloro-2-((4-chloro-2-fluorobenzyl)oxy)benzyl)-1H-indol-4-yl)propanoic acid], the “Results of Test 2 (Functional assay), % inh” value is reported as “$ (% inh > 75)”.
